Columns and labels:
[1] = test system: LHON 3460 mutation lymphoblasts; test: Microphysiometry of LHON cells, 3460 mutation; assay type: cell-based, human; settings: LHON 3460 mutation cells compared with control; FIG. 4A-4E
From the text: (§1) The rate at which cells excrete protons (the acidification rate) is closely linked to the rate at which they convert nutrients to energy. Because energy metabolism is coupled to ATP consumption, any event that perturbs ATP levels, such as receptor activation or calcium influx, causes a change in energy metabolism and, therefore, an alteration in proton excretion. In addition, receptor activation may also directly affect proton excretion by altering Na/H exchange. A typical microphysiometer, such as the Cytosensor™ (Molecular Devices), uses a silicon-based sensor to measure the rate of proton excretion from 10^4-10^6 cells. Cells are contained in a 3 μL flow chamber in aqueous contact with the pH-sensitive surface of a light-sensitive potentiometric sensor. Flow of medium (with low buffering capacity) and test compounds are determined by a series of microprocessor-controlled pumps. The extracellular acidification rate is determined by measuring the decrease in pH that occurs as acidic metabolites accumulate during brief halts in the flow of medium. The degree of stimulation of the basal acidification is calculated and plotted as a per cent of the basal acidification rate. The sensor takes a voltage measurement that is linearly related to pH. Typically, during a 30-60 sec halt in flow, pH will decrease less than 0.1 pH unit. Reproducible and robust responses are obtained to metabolic inhibitors, growth factors and ionophores in lymphoblast lines. Because virtually any manipulation alters proton excretion, it is relatively easy to determine the types of stimuli to which disease cell lines respond abnormally.
(§2) LHON: Previous work at Emory University has identified causative mitochondrial DNA mutations in LHON patients. Well-characterized LHON patient cell lines have been generated and banked. These cell lines have been characterized by molecular genetic, cellular respiration and enzymology studies. The patient cell lines were obtained from the Emory University Clinical Research Center (Emory University, Atlanta, Ga.).
(§3) Patient lymphocytes are immortalized using the technique of Neitzel H, Human Genetics 73:320-326 (1986). In brief, the lymphocytes are removed from the buffy coat layer following Histopaque density separation. […]
(§4) Lymphoblasts are suspended in agarose entrapment solution at a density of 5×10^5 cells/10 μl, then are plated onto chamber inserts, and allowed to solidify for 20 minutes. […] The rate of acidification is calculated as the slope of a linear least squares fit to the relation of pH versus time during the pump's off period. […]

[2] = test system: LHON 14459 mutation lymphoblasts; test: Microphysiometry of LHON cells, 14459 mutation; assay type: cell-based, human; settings: LHON 14459 mutation cells compared with control; FIG. 4A-4E
From the text: as §1, §2, §3, §4

[3] = test system: PC12 cells transfected with two mutant forms of PS1; assay type: cell-based, Rat; settings: PC12 cells transfected with mutant presenilin-1; FIG. 2A-2D
From the text: as §1
Rat adrenal pheochromocytoma PC 12 cells were stably transfected with PS1 cDNA cloned behind the CMV promoter in pcDNA3. See, e.g., Lah, J. J. et al., J. Neurosci. […]
as §4

HD fibroblasts = test: Microphysiometry of HD cells; assay type: cell-based, human; settings: HD cells compared with control cells; FIG. 3
sporadic AD lymphoblasts = test: Microphysiometry (acidification rate) of sporadic AD lymphoblasts; assay type: cell-based, human; settings: sporadic AD lymphoblasts compared with controls; FIG. 1A-1D
From the text: as §1, with “Because virtually any manipulation alters proton excretion, it is relatively easy to determine the types of stimuli to which disease cell lines respond abnormally.” left out
Alzheimer's disease: Lymphoblast cell lines were generated from blood samples obtained from patients followed in the Emory Alzheimer's Disease Center. All patients have been evaluated by detailed neurological and neuropsychometric examinations. […]
as §4

PD lymphoblasts = test: Microphysiometry of PD lymphoblasts; assay type: cell-based, human; settings: PD lymphoblasts compared with controls; FIG. 5A-5D
From the text: as §1, with “abnormally. […]” for “abnormally.”
as §4

control cells = test: Microphysiometry of control cells, ionomycin response after rotenone; assay type: cell-based, human; settings: control cells exposed to rotenone; FIG. 3
From the text: as §1, with “Cells are contained in a 3 μL flow chamber in aqueous contact with the pH-sensitive surface of a light-sensitive potentiometric sensor.” left out, “The sensor takes a voltage measurement that is linearly related to pH. Typically, during a 30-60 sec halt in flow, pH will decrease less than 0.1 pH unit. Reproducible and robust responses are obtained to metabolic inhibitors, growth factors and ionophores in lymphoblast lines. Because virtually any manipulation alters proton excretion, it is relatively easy to determine the types of stimuli to which disease cell lines respond abnormally.” left out
as §4

| Compound | microphysiometric response to the inhibitor or ionophore [1] | microphysiometric response to the inhibitor or ionophore [2] | microphysiometric response to the inhibitor [3] | microphysiometric response to the calcium ionophore (HD fibroblasts) | microphysiometric response (stimulation of acidification rate) to the inhibitor (sporadic AD lymphoblasts) | microphysiometric response to the inhibitor (PD lymphoblasts) | reproduction of the HD-type altered response to ionomycin (control cells) |
| --- | --- | --- | --- | --- | --- | --- | --- |
| O=C(CC(=O)C(F)(F)F)c1cccs1 [TTFA, Thenoyltrifluoroacetone] | no difference between control and patient lymphoblast responses | no difference between control and patient lymphoblast responses |  |  |  |  |  |
| CN(C)C(=O)Nc1ccc(Cl)c(Cl)c1 [diuron] |  |  | similarly depressed response |  |  |  |  |
| C[C@H](CCC(=O)O)C[C@H](C)C[C@H](C)C(=O)/C=C(\O)[C@H](C)C[C@H](C)C/C=C/[C@@H](C)[C@@H](O)[C@@H](C)[C@@H](O)C[C@@H]1CC[C@@](C)([C@H]2CC[C@@](C)([C@@H](C)O)O2)O1 [ionomycin] | abnormal | abnormal |  | abnormal responses |  |  |  |
| O=C(O)CC(=O)O [malonate] |  |  | normal response |  | do not differ substantially from controls | do not differ substantially from controls |  |
| C=C(C)[C@H]1Cc2c(ccc3c2O[C@@H]2COc4cc(OC)c(OC)cc4[C@@H]2C3=O)O1 [rotenone] | virtually absent | markedly depressed | similarly depressed response |  | markedly blunted | markedly blunted | can be reproduced in control cells |
| antimycin-A | markedly depressed | markedly depressed |  |  | markedly blunted | do not differ substantially from controls |  |
